From PubChem BioAssay AID328 (DTP/NCI, 2004)
Values joined by “and” are separate entries in the source; they are usually repeats but may differ in a detail not shown here. Equal entries are not always repeated. Toxic doses and inconclusive results are not listed. How the source made its calls: active means survival T/C of 150% or more; inactive means T/C below 125% in these data.

System: BDF1 mice, P388 leukemia ip, median survival T/C
Experiment: NCI In Vivo Anticancer Drug Screen. Data for tumor model P388 Leukemia (intraperitoneal) in B6D2F1 (BDF1) mice
Settings: endpoint: median survival time, higher = longer survival
How it was run: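 Read-out is survival of treated animals expressed relative to the vehicle group, as a T/C ratio.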

[1] = dose: 100.0 mg/kg/injection, schedule: Q01DX009 (ip), vehicle: saline with Tween-80
[2] = dose: 100.0 mg/kg/injection, schedule: Q04DX003 (ip), vehicle: saline
[3] = dose: 200.0 mg/kg/injection, schedule: Q01DX009 (ip), vehicle: saline with Tween-80
[4] = dose: 200.0 mg/kg/injection, schedule: Q04DX003 (ip), vehicle: saline
[5] = dose: 50.0 mg/kg/injection, schedule: Q01DX009 (ip), vehicle: saline with Tween-80

Measured: T/C

COC(=O)/C=C/c1c[nH]c2nccnc12
inactive: dose: 25.0 mg/kg/injection, schedule: Q01DX009 (ip), vehicle: water 104 % of control | dose: 50.0 mg/kg/injection, schedule: Q01DX009 (ip), vehicle: water 90 % of control and 112 % of control | dose: 100.0 mg/kg/injection, schedule: Q01DX009 (ip), vehicle: water 97 % of control and 109 % of control | dose: 100.0 mg/kg/injection, schedule: Q04DX003 (ip), vehicle: water 86 % of control | dose: 200.0 mg/kg/injection, schedule: Q01DX009 (ip), vehicle: water 115 % of control | dose: 200.0 mg/kg/injection, schedule: Q04DX003 (ip), vehicle: water 102 % of control | dose: 300.0 mg/kg/injection, schedule: Q01DX009 (ip), vehicle: water 106 % of control | dose: 400.0 mg/kg/injection, schedule: Q01DX009 (ip), vehicle: water 93 % of control | dose: 400.0 mg/kg/injection, schedule: Q04DX003 (ip), vehicle: water 102 % of control

O=[N+]([O-])c1cccc(O)c1
inactive: dose: 100.0 mg/kg/injection, schedule: Q01DX001 (ip), vehicle: saline 100 % of control | [1] 109 % of control | [2] 118 % of control | dose: 200.0 mg/kg/injection, schedule: Q01DX001 (ip), vehicle: saline 100 % of control | [3] 86 % of control | [4] 100 % of control | dose: 400.0 mg/kg/injection, schedule: Q01DX001 (ip), vehicle: saline 100 % of control

COc1ccc2c(c1C)CCC1(C(=O)O)CC(C)C(O)CC21 (configuration not stated)
inactive: dose: 50.0 mg/kg/injection, schedule: Q04DX003 (ip), vehicle: saline sonified 95 % of control | dose: 100.0 mg/kg/injection, schedule: Q04DX003 (ip), vehicle: saline sonified 100 % of control | dose: 200.0 mg/kg/injection, schedule: Q04DX003 (ip), vehicle: saline sonified 100 % of control

OCCOCCN1CCN(CCCN2c3ccccc3Sc3ccc(C(F)(F)F)cc32)CC1
inactive: dose: 1.56 mg/kg/injection, schedule: Q01DX009 (ip), vehicle: saline 109 % of control | dose: 12.5 mg/kg/injection, schedule: Q04DX003 (ip), vehicle: saline 113 % of control and 120 % of control | dose: 50.0 mg/kg/injection, schedule: Q04DX003 (ip), vehicle: saline 117 % of control

CS(=O)(=O)C1CCCCC1SC#N (configuration not stated)
inactive: [5] 98 % of control | [1] 115 % of control | [3] 115 % of control

CCC1OC(=O)CC(O)C(C)C(OC2OC(C)C(O)C(N(C)C)C2O)C(CC=O)CC(C)C(=O)/C=C/C2(C)OC2C1C (configuration not stated)
inactive: dose: 150.0 mg/kg/injection, schedule: Q01DX009 (ip), vehicle: Klucel (hydroxypropylcellulose) (HPC) 92 % of control

C=C(C)C12OC3(c4ccccc4)OC1C1C4OC4(CO)C(O)C4(O)C(=O)C(C)=CC4C1(O3)C(C)C2OC(=O)/C=C/C=C/CCCCC (configuration not stated)
inactive: dose: 6.3 micrograms/kg/injection, schedule: Q## X009 (ip), vehicle: saline + alcohol 107 % of control | dose: 12.5 micrograms/kg/injection, schedule: Q## X009 (ip), vehicle: saline + alcohol 103 % of control | dose: 25.0 micrograms/kg/injection, schedule: Q## X009 (ip), vehicle: saline + alcohol 103 % of control | dose: 200.0 micrograms/kg/injection, schedule: Q## X009 (ip), vehicle: saline + alcohol 106 % of control

Nc1ccc(SCc2nc3cccc4c3n2CCC4)cc1
inactive: dose: 100.0 mg/kg/injection, schedule: Q04DX003 (ip), vehicle: saline with Tween-80 91 % of control | dose: 200.0 mg/kg/injection, schedule: Q04DX003 (ip), vehicle: saline with Tween-80 95 % of control | dose: 400.0 mg/kg/injection, schedule: Q04DX003 (ip), vehicle: saline with Tween-80 95 % of control

CC12CCC(OC3OC(CO)C(O)C(O)C3O)CC1CCC1C2CCC2(C)C(C3=CC(=O)OC3)CCC12O (configuration not stated)
inactive: dose: 40.0 mg/kg/injection, schedule: Q01DX009 (ip), vehicle: saline 86 % of control | dose: 80.0 mg/kg/injection, schedule: Q01DX009 (ip), vehicle: saline 86 % of control | dose: 160.0 mg/kg/injection, schedule: Q01DX009 (ip), vehicle: saline 95 % of control

O=NN(c1ccccc1)c1ccc(N(N=O)c2ccccc2)cc1
inactive: dose: 50.0 mg/kg/injection, schedule: Q01DX009 (ip), vehicle: Klucel (hydroxypropylcellulose) (HPC) 100 % of control | dose: 100.0 mg/kg/injection, schedule: Q01DX009 (ip), vehicle: Klucel (hydroxypropylcellulose) (HPC) 105 % of control | dose: 200.0 mg/kg/injection, schedule: Q01DX009 (ip), vehicle: Klucel (hydroxypropylcellulose) (HPC) 110 % of control

CCC12C=CCN3CCC4(c5ccc(OC)cc5N(C)C4C(O)(C(=O)OC)C1OC(C)=O)C32 (configuration not stated) (tested in a mixture with another compound)
inactive: dose: 0.06 mg/kg/injection, schedule: Q01DX009 (ip), vehicle: water 86 % of control and 95 % of control | dose: 0.12 mg/kg/injection, schedule: Q01DX009 (ip), vehicle: water 90 % of control | dose: 0.25 mg/kg/injection, schedule: Q01DX009 (ip), vehicle: water 86 % of control and 104 % of control | dose: 0.5 mg/kg/injection, schedule: Q01DX009 (ip), vehicle: water 90 % of control | dose: 1.0 mg/kg/injection, schedule: Q01DX009 (ip), vehicle: water 86 % of control and 90 % of control | dose: 2.0 mg/kg/injection, schedule: Q01DX009 (ip), vehicle: water 100 % of control and 90 % of control

CC1(C)COC(C)(C(=O)NN)OC1
inactive: dose: 100.0 mg/kg/injection, schedule: Q04DX002 (ip), vehicle: saline 104 % of control | dose: 200.0 mg/kg/injection, schedule: Q04DX002 (ip), vehicle: saline 101 % of control | dose: 400.0 mg/kg/injection, schedule: Q04DX002 (ip), vehicle: saline 92 % of control

COc1cc(NC(=O)N(CCCl)N=O)cc(OC)c1OC
active: dose: 1.6 mg/kg/injection, schedule: Q01DX009 (ip), vehicle: saline + alcohol 168 % of control | dose: 2.4 mg/kg/injection, schedule: Q01DX009 (ip), vehicle: saline + alcohol 161 % of control | dose: 3.0 mg/kg/injection, schedule: Q04DX003 (ip), vehicle: saline + alcohol 166 % of control | dose: 3.7 mg/kg/injection, schedule: Q01DX009 (ip), vehicle: saline + alcohol 203 % of control | dose: 5.5 mg/kg/injection, schedule: Q04DX003 (ip), vehicle: saline + alcohol 168 % of control | dose: 5.56 mg/kg/injection, schedule: Q01DX009 (ip), vehicle: saline + alcohol 201 % of control and 203 % of control | dose: 8.3 mg/kg/injection, schedule: Q04DX003 (ip), vehicle: saline + alcohol 218 % of control | dose: 8.33 mg/kg/injection, schedule: Q01DX009 (ip), vehicle: saline + alcohol 220 % of control | dose: 12.5 mg/kg/injection, schedule: Q01DX009 (ip), vehicle: saline + alcohol 226 % of control | dose: 12.5 mg/kg/injection, schedule: Q04DX003 (ip), vehicle: saline + alcohol 227 % of control | dose: 18.7 mg/kg/injection, schedule: Q04DX003 (ip), vehicle: saline + alcohol 268 % of control
inactive: dose: 0.88 mg/kg/injection, schedule: Q04DX003 (ip), vehicle: saline + alcohol 114 % of control | dose: 18.7 mg/kg/injection, schedule: Q01DX009 (ip), vehicle: saline + alcohol 111 % of control | dose: 25.0 mg/kg/injection, schedule: Q01DX009 (ip), vehicle: saline + alcohol 108 % of control

N#Cc1ccc(OC(=O)c2ccc(N=C(N)N)cc2)cc1
inactive: dose: 50.0 mg/kg/injection, schedule: Q01DX009 (ip), vehicle: saline 100 % of control | dose: 100.0 mg/kg/injection, schedule: Q01DX009 (ip), vehicle: saline 104 % of control | [2] 104 % of control | dose: 200.0 mg/kg/injection, schedule: Q01DX009 (ip), vehicle: saline 90 % of control | [4] 113 % of control

O=C1c2ccccc2C(=O)N1C/C(=N/O)c1ccc(C(F)(F)F)cc1
inactive: dose: 50.0 mg/kg/injection, schedule: Q01DX001 (ip), vehicle: Klucel (hydroxypropylcellulose) (HPC) 96 % of control | dose: 100.0 mg/kg/injection, schedule: Q01DX001 (ip), vehicle: Klucel (hydroxypropylcellulose) (HPC) 96 % of control | dose: 200.0 mg/kg/injection, schedule: Q01DX001 (ip), vehicle: Klucel (hydroxypropylcellulose) (HPC) 96 % of control

CCc1noc(CC)c1CC1=C2CCC3(C)CCC(C)(C)CC3C2(C)CCC1=O (configuration not stated)
inactive: dose: 100.0 mg/kg/injection, schedule: Q01DX001 (ip), vehicle: saline with Tween-80 95 % of control | dose: 200.0 mg/kg/injection, schedule: Q01DX001 (ip), vehicle: saline with Tween-80 90 % of control | dose: 400.0 mg/kg/injection, schedule: Q01DX001 (ip), vehicle: saline with Tween-80 90 % of control

O=C1NC(=S)S/C1=C\c1ccncc1
inactive: [5] 113 % of control | [1] 106 % of control | [3] 106 % of control | dose: 400.0 mg/kg/injection, schedule: Q01DX009 (ip), vehicle: saline with Tween-80 106 % of control
